Laboratory results: patent US20260250290A1 (BRISTOL-MYERS SQUIBB COMPANY, priority 2023, published 2026)
pIC50: −log10 of the molar value.

target: T1, full length SGK1 (Homo sapiens, UniProt O00141); experiment: SGK1 inhibition Assay A (Caliper LabChip electrophoretic separation of fluorescent peptide substrate and phosphorylated product); type: biochemical; conditions: Assay A; 20 μM ATP, 40 min incubation; read-out: SGK1 IC50
T1 construct: 125 μM full length SGK1 (Life Technologies Part #PR7358A); purchased Life Technologies PR7358A
T1 sequence (O00141 1-431): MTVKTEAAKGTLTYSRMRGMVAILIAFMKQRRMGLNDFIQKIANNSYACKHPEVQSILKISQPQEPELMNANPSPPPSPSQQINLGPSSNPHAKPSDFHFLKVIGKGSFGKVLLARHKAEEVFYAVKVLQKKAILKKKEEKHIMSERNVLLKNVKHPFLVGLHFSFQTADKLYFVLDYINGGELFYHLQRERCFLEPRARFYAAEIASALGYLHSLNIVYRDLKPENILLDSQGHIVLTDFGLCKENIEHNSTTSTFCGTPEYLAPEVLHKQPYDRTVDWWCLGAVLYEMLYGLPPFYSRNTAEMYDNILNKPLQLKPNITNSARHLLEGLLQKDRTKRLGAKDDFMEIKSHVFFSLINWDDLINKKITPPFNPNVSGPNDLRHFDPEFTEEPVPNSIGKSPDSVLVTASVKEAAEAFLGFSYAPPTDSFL

Row | SMILES | pIC50
1 | CC(=O)N1CC=C(c2cc(N3CCC[C@@H](NC(=O)c4cccc(N5CCN(C)CC5)n4)C3)c3c(N)ncnn23)C1 [Example 704, (R)-N-(1-(7-(1-acetyl-2,5-dihydro-1H-pyrrol-3-yl)-4-aminopyrrolo[2,1-f][1,2,4]triazin-5-yl)piperidin-3-yl)-6-(4-methylpiperazin-1-yl)picolinamide] | 7.96
2 | CC(=O)N1CC=C(c2cc(N3CCC[C@@H](NC(=O)C4CC5(C4)CC(F)(F)C5)C3)c3c(N)ncnn23)C1 [Example 705, (R)-N-(1-(7-(1-acetyl-2,5-dihydro-1H-pyrrol-3-yl)-4-aminopyrrolo[2,1-f][1,2,4]triazin-5-yl)piperidin-3-yl)-6,6-difluorospiro[3.3]heptane-2-carboxamide] | 6.12
3 | CC(=O)N1CC=C(c2cc(N3CCC[C@@H](NC(=O)c4ccnc(OCCN(C)C)c4)C3)c3c(N)ncnn23)C1 [Example 706, (R)-N-(1-(7-(1-acetyl-2,5-dihydro-1H-pyrrol-3-yl)-4-aminopyrrolo[2,1-f][1,2,4]triazin-5-yl)piperidin-3-yl)-2-(2-(dimethylamino)ethoxy) isonicotinamide] | 7.24
4 | CC(=O)N1CC=C(c2cc(N3CCC[C@@H](NC(=O)c4ccnc(OCCN5CCOCC5)c4)C3)c3c(N)ncnn23)C1 [Example 707, (R)-N-(1-(7-(1-acetyl-2,5-dihydro-1H-pyrrol-3-yl)-4-aminopyrrolo[2,1-f][1,2,4]triazin-5-yl)piperidin-3-yl)-2-(2-morpholinoethoxy) isonicotinamide] | 7.17
5 | CC(=O)N1CC=C(c2cc(N3CCC[C@@H](NC(=O)c4nccn4C)C3)c3c(N)ncnn23)C1 [Example 708] | 6.31
6 | CC(=O)N1CC=C(c2cc(N3CCC[C@@H](NC(=O)c4cccc(OC5CCN(C)CC5)n4)C3)c3c(N)ncnn23)C1 [Example 709, (R)-N-(1-(7-(1-acetyl-2,5-dihydro-1H-pyrrol-3-yl)-4-aminopyrrolo[2,1-f][1,2,4]triazin-5-yl)piperidin-3-yl)-6-((1-methylpiperidin-4-yl)oxy)picolinamide] | 7.80
7 | CC(=O)N1CC=C(c2cc(N3CCC[C@@H](NC(=O)c4cccc(C5CC5)n4)C3)c3c(N)ncnn23)C1 [Example 710, (R)-N-(1-(7-(1-acetyl-2,5-dihydro-1H-pyrrol-3-yl)-4-aminopyrrolo[2,1-f][1,2,4]triazin-5-yl)piperidin-3-yl)-6-cyclopropylpicolinamide,] | 7.89
8 | CC(=O)N1CC=C(c2cc(N3CCC[C@@H](NC(=O)C4CC(F)(F)C4)C3)c3c(N)ncnn23)C1 [Example 711, (R)-N-(1-(7-(1-acetyl-2,5-dihydro-1H-pyrrol-3-yl)-4-aminopyrrolo[2,1-f][1,2,4]triazin-5-yl)piperidin-3-yl)-3,3-difluorocyclobutane-1-carboxamide] | 6.00
9 | CC(=O)N1CC=C(c2cc(N3CCC[C@@H](NC(=O)C4CCC(F)(F)C4)C3)c3c(N)ncnn23)C1 (stereo partly drawn) [Example 712, N-((R)-1-(7-(1-acetyl-2,5-dihydro-1H-pyrrol-3-yl)-4-aminopyrrolo[2,1-f][1,2,4]triazin-5-yl)piperidin-3-yl)-3,3-difluorocyclopentane-1-carboxamide] | 5.89
10 | CC(=O)N1CC=C(c2cc(N3CCC[C@@H](NC(=O)c4ccnc(OCCN5CCN(C)CC5)c4)C3)c3c(N)ncnn23)C1 [Example 713] | 7.23
11 | CC(=O)N1CC=C(c2cc(N3CCC[C@@H](NC(=O)c4ccc(C#N)s4)C3)c3c(N)ncnn23)C1 [Example 714, (R)-N-(1-(7-(1-acetyl-2,5-dihydro-1H-pyrrol-3-yl)-4-aminopyrrolo[2,1-f][1,2,4]triazin-5-yl)piperidin-3-yl)-5-cyanothiophone-2-carboxamide] | 8.15
12 | COc1cccc(C(=O)N[C@@H]2CCCN(c3cc(C4=CCN(C(C)=O)C4)n4ncnc(N)c34)C2)n1 [Example 715, (R)-N-(1-(7-(1-acetyl-2,5-dihydro-1H-pyrrol-3-yl)-4-aminopyrrolo[2,1-f][1,2,4]triazin-5-yl)piperidin-3-yl)-6-methoxypicolinamide] | 7.66
13 | COc1cc(C(=O)N[C@@H]2CCCN(c3cc(C4=CCN(C(C)=O)C4)n4ncnc(N)c34)C2)ccn1 [Example 716, (R)-N-(1-(7-(1-acetyl-2,5-dihydro-1H-pyrrol-3-yl)-4-aminopyrrolo[2,1-f][1,2,4]triazin-5-yl)piperidin-3-yl)-2-methoxyisonicotinamide] | 7.64
14 | CC(=O)N1CC=C(c2cc(N3CCC[C@@H](NC(=O)c4ccnc(N(C)C)c4)C3)c3c(N)ncnn23)C1 [Example 717] | 7.41
15 | COc1ncccc1C(=O)N[C@@H]1CCCN(c2cc(C3=CCN(C(C)=O)C3)n3ncnc(N)c23)C1 [Example 718, (R)-N-(1-(7-(1-acetyl-2,5-dihydro-1H-pyrrol-3-yl)-4-aminopyrrolo[2,1-f][1,2,4]triazin-5-yl)piperidin-3-yl)-2-methoxynicotinamide] | 7.59
16 | CC(=O)N1CC=C(c2cc(N3CCC[C@@H](NC(=O)c4csc(Cl)c4)C3)c3c(N)ncnn23)C1 [Example 719] | 8.30
17 | CC(=O)N1CC=C(c2cc(N3CCC[C@@H](NC(=O)c4csc(C)c4)C3)c3c(N)ncnn23)C1 [Example 720, (R)-N-(1-(7-(1-acetyl-2,5-dihydro-1H-pyrrol-3-yl)-4-aminopyrrolo[2,1-f][1,2,4]triazin-5-yl)piperidin-3-yl)-5-methylthiophene-3-carboxamide] | 8.30
18 | COc1cscc1C(=O)N[C@@H]1CCCN(c2cc(C3=CCN(C(C)=O)C3)n3ncnc(N)c23)C1 [Example 721, (R)-N-(1-(7-(1-acetyl-2,5-dihydro-1H-pyrrol-3-yl)-4-aminopyrrolo[2,1-f][1,2,4]triazin-5-yl)piperidin-3-yl)-4-methoxythiophene-3-carboxamide] | 8.00
19 | CC(=O)N1CC=C(c2cc(N3CCC[C@@H](NC(=O)c4cccnc4OCCN4CCN(C)CC4)C3)c3c(N)ncnn23)C1 [Example 722, (R)-N-(1-(7-(1-acetyl-2,5-dihydro-1H-pyrrol-3-yl)-4-aminopyrrolo[2,1-f][1,2,4]triazin-5-yl)piperidin-3-yl)-2-(2-(4-methylpiperazin-1-yl)ethoxy)nicotinamide] | 6.94
20 | CC(=O)N1CC=C(c2cc(N3CCC[C@@H](NC(=O)c4cccnc4OCCN(C)C)C3)c3c(N)ncnn23)C1 [Example 723, (R)-N-(1-(7-(1-acetyl-2,5-dihydro-1H-pyrrol-3-yl)-4-aminopyrrolo[2,1-f][1,2,4]triazin-5-yl)piperidin-3-yl)-2-(2-(dimethylamino)ethoxy) nicotinamide] | 6.57
21 | CC(=O)N1CC=C(c2cc(N3CCC[C@@H](NC(=O)c4cccc(N(C)C)n4)C3)c3c(N)ncnn23)C1 [Example 725, (R)-N-(1-(7-(1-acetyl-2,5-dihydro-1H-pyrrol-3-yl)-4-aminopyrrolo[2,1-f][1,2,4]triazin-5-yl)piperidin-3-yl)-6-(dimethylamino) picolinamide] | 7.59
22 | CC(=O)N1CC=C(c2cc(N3CCC[C@@H](NC(=O)c4cccc(F)n4)C3)c3c(N)ncnn23)C1 [Example 726, :(R)-N-(1-(7-(1-acetyl-2,5-dihydro-1H-pyrrol-3-yl)-4-aminopyrrolo[2,1-f][1,2,4]triazin-5-yl)piperidin-3-yl)-6-fluoropicolinamide] | 7.21
23 | CC(=O)N1CC=C(c2cc(N3CCC[C@@H](NC(=O)c4cccc(CN5CCN(C)CC5)n4)C3)c3c(N)ncnn23)C1 [Example 727, (R)-N-(1-(7-(1-acetyl-2,5-dihydro-1H-pyrrol-3-yl)-4-aminopyrrolo[2,1-f][1,2,4]triazin-5-yl)piperidin-3-yl)-6-((4-methylpiperazin-1-yl)methyl)picolinamide] | 6.79
24 | CC(=O)N1CC=C(c2cc(N3CCC[C@@H](NC(=O)c4ccccn4)C3)c3c(N)ncnn23)C1 [Example 728, (R)-N-(1-(7-(1-acetyl-2,5-dihydro-1H-pyrrol-3-yl)-4-aminopyrrolo[2,1-f][1,2,4]triazin-5-yl)piperidin-3-yl)picolinamide] | 7.09
25 | CC(=O)N1CC=C(c2cc(N3CCC[C@@H](NC(=O)c4cccnc4)C3)c3c(N)ncnn23)C1 [Example 729, (R)-N-(1-(7-(1-acetyl-2,5-dihydro-1H-pyrrol-3-yl)-4-aminopyrrolo[2,1-f][1,2,4]triazin-5~ yl)piperidin-3-yl)nicotinamide] | 6.95
26 | CC(=O)N1CC=C(c2cc(N3CCC[C@@H](NC(=O)c4ccncc4)C3)c3c(N)ncnn23)C1 [Example 730, (R)-N-(1-(7-(1-acetyl-2,5-dihydro-1H-pyrrol-3-yl)-4-aminopyrrolo[2,1-f][1,2,4]triazin-5-yl)piperidin-3-yl)isonicotinamide] | 7.59
27 | CC(=O)N1CC=C(c2cc(N3CCC[C@@H](NC(=O)c4ccc(Cl)s4)C3)c3c(N)ncnn23)C1 [Example 731, (R)-N-(1-(7-(1-acctyl-2,5-dihydro-1H-pyrrol-3-yl)-4-aminopyrrolo[2,1-f][1,2,4]triazin-5-yl)piperidin-3-yl)-5-chlorothiophene-2-carboxamide] | 8.22
28 | CC(=O)N1CC=C(c2cc(N3CCC[C@@H](NC(=O)c4cc(C)cc(N5CCN(C)CC5)n4)C3)c3c(N)ncnn23)C1 [Example 732, (R)-N-(1-(7-(1-acetyl-2,5-dihydro-1H-pyrrol-3-yl)-4-aminopyrrolo[2,1-f][1,2,4]triazin-5-yl)piperidin-3-yl)-4-methyl-6-(4-methylpiperazin-1-yl)picolinamide] | 7.60
